The values below come from patent publication US20240058422A1, “GLUCAGON-LIKE PEPTIDE-1 RECEPTOR ANTAGONISTS” (INDIANA UNIVERSITY RESEARCH AND TECHNOLOGY CORPORATION, priority 2022, published 2024).

One may read the IC50 as the point on the concentration scale where inhibition reaches its midpoint.

Entries after “also recorded” stand apart in the source; their conditions may differ. Like-named read-outs stand apart in the source and are kept apart here. Starred links: 1 amine or outer side, 2 acyl side, 3 side chain; linkers in the order of their positions; H or OH if unused. Non-standard residues stand in square brackets, D forms with d. Residues, ends and D or L forms follow the SMILES beside them. Groups on a side chain read outwards from the residue. No end group written: not given here. *: point of attachment. miniPEG = miniature polyethylene glycol spacer (mPEG); C18 diacid = O=C(O)CCCCCCCCCCCCCCCCC(=O)*; γGlu = O=C(O)[C@H](CCC(=O)[*:2])N[*:1]; Palmitoyl = CCCCCCCCCCCCCCCC(=O)*; pGlu = O=C1CC[C@@H](C(=O)O)N1

In test [1] the target is T1, GLP-1R (Homo sapiens, UniProt P43220). Put plainly: IC50 nM. Also noted: host or cells: HEK 293. Here is the method:
Table printed on a drawing sheet, Fig. 10
Head of the field: IC50 nM
Where the first naming reader finds the target: description_of_the_figure: as measured in an in vitro assay using GLP-1R over-expressing 293 cells
Target sequence in this assay (P43220 24-463 limits assumed): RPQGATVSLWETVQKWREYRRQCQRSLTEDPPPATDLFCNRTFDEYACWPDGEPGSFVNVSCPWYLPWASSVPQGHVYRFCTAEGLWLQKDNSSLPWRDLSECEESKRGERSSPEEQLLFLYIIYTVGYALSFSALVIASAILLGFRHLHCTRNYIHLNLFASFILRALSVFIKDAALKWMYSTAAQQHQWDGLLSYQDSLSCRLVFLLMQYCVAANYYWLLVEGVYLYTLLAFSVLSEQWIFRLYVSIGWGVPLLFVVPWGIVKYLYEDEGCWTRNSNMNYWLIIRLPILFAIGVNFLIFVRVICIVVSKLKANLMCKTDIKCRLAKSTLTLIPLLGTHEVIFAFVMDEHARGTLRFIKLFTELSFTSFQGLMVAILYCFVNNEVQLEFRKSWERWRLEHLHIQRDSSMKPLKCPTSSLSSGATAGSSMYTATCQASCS

Test [2] relates to mice. Put plainly: Glucose tolerance test after subcutaneous GLP-1 antagonist. The test is classed as in vivo. The note with it: s.c. antagonist, 4 h later i.p. glucose 1.5 g/kg, FIGS. 2A, 2B. Here is the method:
FIGS. 2A & 2B present data from a glucose tolerance test wherein mice are subcutaneously administered the GLP-1 antagonist followed four hours later by intraperitoneal administration of glucose (1.5 g glucose per kg body weight).
C57Bl/6 mice were obtained from Jackson Laboratories. Mice were single-or group-housed on a 12:12 h light-dark cycle at 22° C. with free access to food and water. All studies were approved by and performed according to the guidelines of the Institutional Animal Care and Use Committee of the University of Cincinnati.
For the determination of glucose tolerance, mice were subjected to 6 h of fasting and injected intraperitoneally with glucose. Injections consisted of 1.5 g glucose per kg body weight (25% w/v D-glucose (Sigma) in 0.9% w/v saline). Tail blood glucose levels (mg dL-1) were measured using a hand-held glucometer (FreeStyle Freedom Lite) before 0 min and at 15, 30, 60, and 120 min after injection.
Mice received a subcutaneous injection of peptide (in PBS) either 1, 4, 8, 24, 48, 72, or 120 at varying doses before being challenged with an IP injection of dipeptidyl peptidase-IV-protected Ex-4 (0.65 nmol kg-1). A GTT was performed fifteen minutes after the GLP-1 injection. Tail blood glucose values were obtained as described above.

Test [3] concerns the target T1, GLP-1R. The note with it: after site-specific acylation of the human-based antagonist; cited from earlier work.
Target sequence in this assay (P43220 24-463, species assumed): as the sequence (P43220 24-463 limits assumed) above
A further test concerns the target T2, GIP receptor (Homo sapiens, UniProt P48546).
T2 sequence (P48546 22-466): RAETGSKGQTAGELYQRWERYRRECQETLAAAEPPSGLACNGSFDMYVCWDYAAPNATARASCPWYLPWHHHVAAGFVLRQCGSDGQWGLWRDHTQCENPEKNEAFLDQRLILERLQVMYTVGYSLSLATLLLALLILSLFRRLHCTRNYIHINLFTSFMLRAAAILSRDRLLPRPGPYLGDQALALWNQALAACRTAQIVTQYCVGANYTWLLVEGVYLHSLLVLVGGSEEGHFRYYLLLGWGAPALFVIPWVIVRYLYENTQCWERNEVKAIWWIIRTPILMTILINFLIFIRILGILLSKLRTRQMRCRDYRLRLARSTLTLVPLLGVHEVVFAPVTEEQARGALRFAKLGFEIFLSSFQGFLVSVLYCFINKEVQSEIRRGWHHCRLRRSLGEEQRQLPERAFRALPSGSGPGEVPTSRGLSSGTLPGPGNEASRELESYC
The settings on record: GLP-1 receptor versus GIP receptor; cited from earlier work.

Test [4] has as its system mice. Put plainly: Blood glucose levels in mice subcutaneously injected with GLP-1 antagonist. Format: in vivo. The note with it: s.c. 10, 30, 100, 300 nmol/kg, measured at 24, 48, 72 hrs, FIG. 8. The text has this: over time, where X=C18-diacid and O=Lys(C18-diacid).
The target in a further test is human GLP-1 receptor (human, UniProt P43220 24-463). Put plainly: cell-based or functional assay.

Consider `CC[C@H](C)[C@H](NC(=O)[C@H](Cc1ccccc1)NC(=O)[C@H](CCC(=O)O)NC(=O)[C@H](CCCNC(=N)N)NC(=O)[C@@H](NC(=O)[C@H](C)NC(=O)[C@H](CCC(N)=O)NC(=O)[C@H](CCC(=O)O)NC(=O)[C@H](CCC(=O)O)NC(=O)[C@H](CC(C)C)NC(=O)[C@H](Cc1ccc(O)cc1)NC(=O)[C@H](CO)NC(=O)[C@H](CO)NC(=O)[C@@H](NC(=O)[C@H](CC(=O)O)NC(=O)CCCCCCCCCCCCCCCCC(=O)O)C(C)C)C(C)C)C(=O)N[C@@H](C)C(=O)N[C@@H](Cc1c[nH]c2ccccc12)C(=O)N[C@@H](CC(C)C)C(=O)N[C@H](C(=O)N[C@@H](CCCNC(=N)N)C(=O)NCC(=O)NCC(=O)N1CCC[C@H]1C(=O)N[C@@H](CO)C(=O)N[C@@H](CO)C(=O)NCC(=O)N[C@@H](C)C(=O)N1CCC[C@H]1C(=O)N1CCC[C@H]1C(=O)N1CCC[C@H]1C(=O)N[C@@H](CO)C(=O)O)C(C)C` [compound 1416] ({C18 diacid}-DVSSYLEEQAVREFIAWLVRGGPSSGAPPPS-OH), for which half-maximal inhibition at GLP-1R [1] (IC50) required 36 nM.

In turn, `CC[C@H](C)[C@H](NC(=O)[C@H](Cc1ccccc1)NC(=O)[C@H](CCC(=O)O)NC(=O)[C@H](CCCNC(=N)N)NC(=O)[C@@H](NC(=O)[C@H](C)NC(=O)[C@H](CCC(N)=O)NC(=O)[C@H](CCC(=O)O)NC(=O)[C@H](CCC(=O)O)NC(=O)[C@H](CC(C)C)NC(=O)[C@H](Cc1ccc(O)cc1)NC(=O)[C@H](CO)NC(=O)[C@H](CO)NC(=O)[C@@H](NC(=O)[C@H](CC(=O)O)NC(=O)CNC(=O)[C@H](CCCCNC(=O)CCCCCCCCCCCCCCCCC(=O)O)NC(=O)[C@@H]1CCC(=O)N1)C(C)C)C(C)C)C(=O)N[C@@H](C)C(=O)N[C@@H](Cc1c[nH]c2ccccc12)C(=O)N[C@@H](CC(C)C)C(=O)N[C@H](C(=O)N[C@@H](CCCNC(=N)N)C(=O)NCC(=O)NCC(=O)N1CCC[C@H]1C(=O)N[C@@H](CO)C(=O)N[C@@H](CO)C(=O)NCC(=O)N[C@@H](C)C(=O)N1CCC[C@H]1C(=O)N1CCC[C@H]1C(=O)N1CCC[C@H]1C(=O)N[C@@H](CO)C(=O)O)C(C)C` [compound 1417] ([pGlu]K(C18 diacid)GDVSSYLEEQAVREFIAWLVRGGPSSGAPPPS-OH) yielded an IC50 against GLP-1R [1] of 80 nM. With `CC[C@H](C)[C@H](NC(=O)[C@H](Cc1ccccc1)NC(=O)[C@H](CCC(=O)O)NC(=O)[C@H](CCCNC(=N)N)NC(=O)[C@@H](NC(=O)[C@H](C)NC(=O)[C@H](CCC(N)=O)NC(=O)[C@H](CCC(=O)O)NC(=O)[C@H](CCC(=O)O)NC(=O)[C@H](CC(C)C)NC(=O)[C@H](Cc1ccc(O)cc1)NC(=O)[C@H](CO)NC(=O)[C@H](CO)NC(=O)[C@@H](NC(=O)[C@H](CC(=O)O)NC(=O)[C@@H]1CCC(=O)N1)C(C)C)C(C)C)C(=O)N[C@@H](C)C(=O)N[C@@H](Cc1c[nH]c2ccccc12)C(=O)N[C@@H](CC(C)C)C(=O)N[C@H](C(=O)N[C@@H](CCCNC(=N)N)C(=O)NCC(=O)NCC(=O)N1CCC[C@H]1C(=O)N[C@@H](CO)C(=O)N[C@@H](CO)C(=O)NCC(=O)N[C@@H](C)C(=O)N1CCC[C@H]1C(=O)N1CCC[C@H]1C(=O)N1CCC[C@H]1C(=O)N[C@@H](CO)C(=O)N[C@@H](CCCCNC(=O)CCCCCCCCCCCCCCCCC(=O)O)C(=O)O)C(C)C` [compound 1418, Z DVSSYLEEQAVREFIAWLVRGGPSSGAPPPSO-acid] ([pGlu]DVSSYLEEQAVREFIAWLVRGGPSSGAPPPSK(C18 diacid)-OH), the IC50 on GLP-1R [1] (read-out: IC50) is 67 nM. Regarding “DVSRYLEEQAVREFIEWLVRGGPSSGAPPPSK[miniPEG-γE-C16]-OH (DVSRYLEEQAVREFIEWLVRGGPSSGAPPPSK([miniPEG-γGlu-Palmitoyl])-OH) [SEQ ID NO: 16]”, the “GLP-1 antagonist activity in glucose tolerance test” value in the test on mice [2] is listed as “full antagonist; also recorded: much higher potency than the GLP-1 antagonist Ex-9-40”. As to “DVSSYLEEQAVREFIAWLVKGGPSSGAPPPSK[C16]-OH (DVSSYLEEQAVREFIAWLVKGGPSSGAPPPSK(Palmitoyl)-OH) [SEQ ID NO: 3]”, the “potency as a GLP-1 receptor antagonist” value with GLP-1R [3] is “increased potency”. Moreover, in the test with GIP receptor, the “selectivity relative to the GIP receptor” value is given as 10 fold. As for “X-DVSSYLEEQAVREFIAWLVRGGPSSGAPPPSO-acid [MBX 1407]”, in the test with mice [4], the glucose blood levels result is reported as “dose dependent response”.

As for XGDLSKQMEEEAVRLFIEWLKNGGPSSGAPPPS (dK at position 7 acylated with Peg2-gE(C16); C-terminal amide (-NH2)) [Ex9-39amide, dK7 (PEG2-γE(C16)), G8], the “IC50 (nM): block of cAMP induction by GLP-1 (0.05 nM), luciferase reporter in HEK 293 cells with human GLP-1 receptor” value with human GLP-1 receptor came out at 6.2 nM.
